Results reported in patent US7566812B2, “Transgenic mouse models of hepatitis C virus (HCV) and identification of HCV therapeutics” (priority 2004, dated 2009).

Tests used:
[1] = test system: NS3/4A-SP2/0 tumor cell line; test: In vivo tumor growth assay in immunized Balb/c mice, NS3/4A-SP2/0 cells; conditions: 3 mg ribavirin with 100, 10 or 1 micrograms coNS3/4A, single immunization
Method: To study whether the constructs described above were capable of eliciting a cell-mediated response against NS3, an in vivo tumor growth assay was performed. To this end, an SP2/0 tumor cell line (SP2/0-Ag14 myeloma cell line (H-2^d)) stably transfected with the NS3/4A gene was made. The SP2/0 cells were maintained in DMEM medium supplemented with 10% fetal calf serum (FCS; Sigma Chemicals, St. Louis, Mo.), 2 mM L-Glutamine, 10 mM HEPES, 100 U/ml Penicillin and 100 μg/ml Streptomycin, 1 mM non-essential amino acids, 50 μM β-mercaptoethanol, 1 mM sodium pyruvate (GIBCO-BRL, Gaithesburgh, Md.). The pcDNA3.1 plasmid containing the NS3/4A gene was linearized by BglII digestion. […]
Transfected cells were cloned by limiting dilution and selected by addition of 800 μg geneticin (G418)/ml complete DMEM medium after 14 days. […] Bound murine serum antibodies were detected by an alkaline phosphatase conjugated goat anti-mouse IgG (Sigma cell products, Saint Louis, Mo. USA) followed by addition of the substrate pNPP (1 tablet/5 ml of 1 M Diethanolamin buffer with 0.5 mM MgCl2). […] Absorbance was then read at 405 nm.
The in vivo growth kinetics of the SP2/0 and the NS3/4A-SP2/0 cell lines were then evaluated in Balb/c mice. […] Each day the size of the tumor was determined through the skin. […]

NS3/4A-Tg mice = test: Survival after TNF-α/D-Gal challenge, NS3/4A transgenic mice; format: in vivo, mouse
Method: (§1) This Example describes several of the approaches used to induce hepatic injury in the NS3/4A-Tg mice and the techniques used to analyze the data. All NS3/4A-Tg or wild-type (Wt) mice used in these experiments were male and/or females between 6-12 weeks old. All groups of mice contained five to ten mice. Comparisons were done in age matched animals, excluding an age dependent difference when comparing groups. For the carbon tetrachloride (CCl4) treatment, CCl4 was diluted in 100 μL olive oil and administered intraperitoneal (i.p.) as a single dose to NS3/4A-Tg and Wt mice. Each mouse was treated with 10 mg (0.5 g/kg) CCl4 (Sigma). Serum from individual mice was collected at various time intervals (12, 24, 48, and 72 hours) after CCl4-treatment by retro-orbital bleeding. Serum alanine aminotransferase (ALT) values were measured to evaluate the extent of liver injury. […] Serum ALT values were measured to evaluate the extent of liver injury. […] Serum ALT values were measured to evaluate the extent of liver injury. […] Serum ALT values were measured to evaluate the extent of liver injury. […] Serum ALT values were measured to evaluate the extent of liver injury.
(§2) SB203580 (Calbiochem) was dissolved/diluted in sterile dH2O and administered to mice intra orally (i.o.). […] The following Example teaches how the above data were statistically analyzed.

wild-type mice = test: Survival after TNF-α/D-Gal challenge, wild-type mice; format: in vivo, mouse
Method: as §1, §2

HCV = test: Treatment of a patient with HCV related complications; format: in vivo; conditions: repeated course of treatment
Method: A patient in need of treatment of HCV related complications is identified by routine methods. The patient is administered an amount of SB203580, based on the particular patient and the severity of the HCV symptoms. Following a repeated course of treatment, if required, the patient's HCV related symptoms are reduced. In some applications, the reduction of viral lode or another indicator for HCV infection is measured. The next example describes more transgenic organisms that contain the constructs described herein.

[2] = test system: NS3/4A-EL-4 tumor cell line; test: Tumor challenge model with NS3/4A-EL-4 tumor cells; format: in vivo; conditions: C57BL/6 mice
Description: To define the in vivo functional anti-tumor effector cell population, CD4+ or CD8+ T cells were depleted in mice immunized with the coNS3/4A plasmid one week prior to, and during, challenge with the NS3/4A-EL-4 tumor cell line. […] Thus, NS3/4A-specific CD8+ CTLs are the major protective cell at the effector stage in the in vivo model for inhibition of tumor growth.
The tumor challenge model was used to evaluate how effective the different immunogens were in priming a protective immunity against growth of NS3/4A-EL4 tumor cells in vivo. To ensure that the effectiveness of the priming event was studied, all mice were immunized only once. Vectors containing NS3/4A were able to rapidly prime protective immune responses as compared to the immunized with the empty pVAX plasmid (p<0.05, ANOVA; FIG. 10). […] The next example examines the prerequisites for priming of CD8+ CTL.
To further clarify the prerequisites for priming of CD8+ CTL additional experiments were performed. First, C57BL/6 mice immunized with the NS3-derived CTL peptide were not protected against growth of NS3/4A-EL-4 tumors. […] To further characterize the priming event, groups of B cell (μMT; Kitamura D., et al., Nature, 350: 423-426 (1991)) or CD4 deficient C57BL/6 mice (Rahemtulla A et al., Nature, 353:180-184 (1991)) were immunized once with the coNS3/4A gene using gene gun, and challenged two weeks later (FIG. 10). […]

[3] = 0.5 mg (25 mg/kg) i.o. thirty minutes prior to rm TNF-α/D-Gal

NC(=O)c1ncn([C@@H]2O[C@H](CO)[C@@H](O)[C@H]2O)n1 [ribavirin, 1-β-D-ribofuranosyl-1,2,4-triazole-3-carboxamide]
effect of the adjuvant on the effectiveness of the initial coNS3/4A immunization (tumor size) [1]: dramatically increased the effectiveness

C[S+]([O-])c1ccc(-c2nc(-c3ccncc3)c(-c3ccc(F)cc3)[nH]2)cc1 (stereo not shown) [SB203580]
TNF-alpha sensitivity phenotype (survival) of NS3/4A transgenic mice (NS3/4A-Tg mice; [3]): reverted to TNF-alpha sensitive phenotype
impact on the survival rate of wild-type mice provided TNF-alpha (wild-type mice; [3]): no significant
patient's HCV related symptoms (HCV): reduced

GAVQNEVTL (Artificial Peptide, NS3/4A H-2D Binding Peptide) [NS3-derived CTL peptide]
protection against growth of NS3/4A-EL-4 tumors [2]: not protected

TNF-α
survival of the lethal TNF-α dose (NS3/4A-Tg mice; 5 μg/kg, NS3/4A-Tg mice): all NS3/4A-Tg mice survived
mice killed (wild-type mice; 5 μg/kg, non-transgenic mice, within 24 hours): 80%
